What was measured:
EGFR [1] = target: T1, EGFR (Homo sapiens, UniProt P00533); experiment: EGFR Western blot in HCT116; assay type: cell-based; settings: for EGFR HCT116 % Inhibition: Western blot at MTT-IC50; for EGFR HCT116 RQ (relative quantification): Western blot at MTT-IC50, control RQ 4.0382
[2] = tested on: RPE1 (normal human immortalized retinal pigment epithelial cell line); experiment: MTT assay against normal RPE1 cells; assay type: cell-based; settings: RPE-1, read-out: IC50 ± SE, RPE1
COX-1 = target: T2, COX-1 (Ovis aries, UniProt P05979); experiment: COX-1 inhibitor screening kit; assay type: biochemical
T2 sequence (P05979 25-600): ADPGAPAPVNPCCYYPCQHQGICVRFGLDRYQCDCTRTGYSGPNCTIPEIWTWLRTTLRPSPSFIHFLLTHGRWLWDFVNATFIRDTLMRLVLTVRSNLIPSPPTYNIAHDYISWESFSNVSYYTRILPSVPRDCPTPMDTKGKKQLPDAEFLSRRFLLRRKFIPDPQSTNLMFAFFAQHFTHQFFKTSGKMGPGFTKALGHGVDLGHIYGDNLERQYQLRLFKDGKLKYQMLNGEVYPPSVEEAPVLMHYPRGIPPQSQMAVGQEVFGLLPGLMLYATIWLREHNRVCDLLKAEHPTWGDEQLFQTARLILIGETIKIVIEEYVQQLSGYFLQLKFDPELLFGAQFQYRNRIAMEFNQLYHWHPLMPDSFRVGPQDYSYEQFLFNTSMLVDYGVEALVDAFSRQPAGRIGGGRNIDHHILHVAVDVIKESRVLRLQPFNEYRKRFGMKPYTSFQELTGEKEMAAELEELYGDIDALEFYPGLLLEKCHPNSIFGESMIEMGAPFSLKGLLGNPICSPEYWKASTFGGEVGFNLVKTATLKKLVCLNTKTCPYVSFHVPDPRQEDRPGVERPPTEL

EGFR [3] = target: T1, EGFR; experiment: EGFR Western blot in MCF7; assay type: cell-based; settings: for EGFR MCF7 % Inhibition: Western blot at MTT-IC50; for EGFR MCF7 RQ (relative quantification): Western blot at MTT-IC50, control RQ 4.226
[4] = tested on: MCF7 (breast) cancer cell line; experiment: MTT antiproliferative assay, MCF7; assay type: cell-based; settings: for IC50: Homo sapiens, MCF7, 72 h, read-out: IC50 ± SE, MCF7; for SI (selectivity index), MCF7: IC50 of RPE1 relative to that of MCF7
[5] = tested on: SARS-CoV-2 (hCoV-19/Egypt/NRC-03/2020); settings: SARS-CoV-2 / VERO-E6
VEGFR-2 [6] = target: T3, VEGFR-2 (Homo sapiens, UniProt P35968); experiment: VEGFR-2 Western blot in MCF7; assay type: cell-based; settings: for VEGFR2 MCF7 % Inhibition: Western blot at MTT-IC50; for VEGFR2 MCF7 RQ (relative quantification): Western blot at MTT-IC50, control RQ 3.725
T3 sequence (P35968 20-1356): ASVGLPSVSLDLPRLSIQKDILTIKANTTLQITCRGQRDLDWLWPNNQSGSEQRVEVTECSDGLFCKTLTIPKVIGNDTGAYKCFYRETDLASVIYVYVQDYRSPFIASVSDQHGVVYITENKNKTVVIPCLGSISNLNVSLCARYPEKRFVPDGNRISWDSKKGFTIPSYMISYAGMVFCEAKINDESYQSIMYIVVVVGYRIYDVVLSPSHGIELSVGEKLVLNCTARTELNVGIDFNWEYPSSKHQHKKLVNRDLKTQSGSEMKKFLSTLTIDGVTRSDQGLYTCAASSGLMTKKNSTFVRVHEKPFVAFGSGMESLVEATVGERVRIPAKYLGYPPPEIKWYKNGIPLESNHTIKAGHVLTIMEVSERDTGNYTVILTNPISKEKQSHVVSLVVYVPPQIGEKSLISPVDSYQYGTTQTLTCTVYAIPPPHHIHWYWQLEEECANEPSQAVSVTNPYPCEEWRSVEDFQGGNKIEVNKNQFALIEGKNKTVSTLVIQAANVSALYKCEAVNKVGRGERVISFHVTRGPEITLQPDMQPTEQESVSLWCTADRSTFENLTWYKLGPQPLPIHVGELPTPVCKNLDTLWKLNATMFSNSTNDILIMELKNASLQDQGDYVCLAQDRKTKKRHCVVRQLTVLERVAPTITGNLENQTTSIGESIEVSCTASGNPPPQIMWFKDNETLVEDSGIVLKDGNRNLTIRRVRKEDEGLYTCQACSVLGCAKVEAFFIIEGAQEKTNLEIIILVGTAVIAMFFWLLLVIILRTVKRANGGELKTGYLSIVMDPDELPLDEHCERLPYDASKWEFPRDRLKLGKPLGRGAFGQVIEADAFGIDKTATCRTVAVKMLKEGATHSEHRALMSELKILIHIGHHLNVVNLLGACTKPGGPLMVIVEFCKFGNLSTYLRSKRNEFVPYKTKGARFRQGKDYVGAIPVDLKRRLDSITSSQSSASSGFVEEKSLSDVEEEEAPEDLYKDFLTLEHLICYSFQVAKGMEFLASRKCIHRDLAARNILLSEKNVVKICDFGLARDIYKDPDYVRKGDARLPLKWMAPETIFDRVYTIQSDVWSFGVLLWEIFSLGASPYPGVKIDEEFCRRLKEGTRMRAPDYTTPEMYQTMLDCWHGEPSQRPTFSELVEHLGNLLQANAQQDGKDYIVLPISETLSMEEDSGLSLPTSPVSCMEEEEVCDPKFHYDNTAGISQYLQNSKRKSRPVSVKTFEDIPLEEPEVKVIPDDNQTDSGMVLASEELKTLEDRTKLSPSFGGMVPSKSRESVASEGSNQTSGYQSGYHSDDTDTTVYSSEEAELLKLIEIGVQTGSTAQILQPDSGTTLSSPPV

COX-2 = target: T4, COX-2 (Homo sapiens, UniProt P35354); experiment: COX-2 inhibitor screening kit; assay type: biochemical
T4 sequence (P35354 18-604): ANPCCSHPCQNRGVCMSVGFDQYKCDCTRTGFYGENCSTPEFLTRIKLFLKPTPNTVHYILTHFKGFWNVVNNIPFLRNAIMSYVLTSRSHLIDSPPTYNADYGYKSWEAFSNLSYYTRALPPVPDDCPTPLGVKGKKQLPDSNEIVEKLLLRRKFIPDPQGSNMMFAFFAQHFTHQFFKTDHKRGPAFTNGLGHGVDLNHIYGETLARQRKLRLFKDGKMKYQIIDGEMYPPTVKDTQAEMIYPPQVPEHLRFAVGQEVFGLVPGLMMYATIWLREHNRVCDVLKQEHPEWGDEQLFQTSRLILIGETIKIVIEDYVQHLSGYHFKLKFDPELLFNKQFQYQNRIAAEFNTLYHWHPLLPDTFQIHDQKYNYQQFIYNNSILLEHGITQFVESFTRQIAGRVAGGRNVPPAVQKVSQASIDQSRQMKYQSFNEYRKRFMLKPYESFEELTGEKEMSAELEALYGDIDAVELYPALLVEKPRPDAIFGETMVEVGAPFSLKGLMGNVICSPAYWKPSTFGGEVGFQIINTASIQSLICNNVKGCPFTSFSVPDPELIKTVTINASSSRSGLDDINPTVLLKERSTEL

[7] = tested on: A431 (squamous skin) cancer cell line; experiment: MTT antiproliferative assay, A431; assay type: cell-based; settings: for IC50: Homo sapiens, A-431, 72 h, read-out: IC50 ± SE, A431; for SI (selectivity index), A431: IC50 of RPE1 relative to that of A431
[8] = tested on: HCT116 (colon) cancer cell line; experiment: MTT antiproliferative assay, HCT116; assay type: cell-based; settings: for IC50: Homo sapiens, HCT-116, 72 h, read-out: IC50 ± SE, HCT116; for SI (selectivity index), HCT116: IC50 of RPE1 relative to that of HCT116
VEGFR-2 [9] = target: T3, VEGFR-2; experiment: VEGFR-2 Western blot in HCT116; assay type: cell-based; settings: for VEGFR2 HCT116 % Inhibition: Western blot at MTT-IC50; for VEGFR2 HCT116 RQ (relative quantification): Western blot at MTT-IC50, control RQ 3.817

T1 sequence (P00533 25-1210): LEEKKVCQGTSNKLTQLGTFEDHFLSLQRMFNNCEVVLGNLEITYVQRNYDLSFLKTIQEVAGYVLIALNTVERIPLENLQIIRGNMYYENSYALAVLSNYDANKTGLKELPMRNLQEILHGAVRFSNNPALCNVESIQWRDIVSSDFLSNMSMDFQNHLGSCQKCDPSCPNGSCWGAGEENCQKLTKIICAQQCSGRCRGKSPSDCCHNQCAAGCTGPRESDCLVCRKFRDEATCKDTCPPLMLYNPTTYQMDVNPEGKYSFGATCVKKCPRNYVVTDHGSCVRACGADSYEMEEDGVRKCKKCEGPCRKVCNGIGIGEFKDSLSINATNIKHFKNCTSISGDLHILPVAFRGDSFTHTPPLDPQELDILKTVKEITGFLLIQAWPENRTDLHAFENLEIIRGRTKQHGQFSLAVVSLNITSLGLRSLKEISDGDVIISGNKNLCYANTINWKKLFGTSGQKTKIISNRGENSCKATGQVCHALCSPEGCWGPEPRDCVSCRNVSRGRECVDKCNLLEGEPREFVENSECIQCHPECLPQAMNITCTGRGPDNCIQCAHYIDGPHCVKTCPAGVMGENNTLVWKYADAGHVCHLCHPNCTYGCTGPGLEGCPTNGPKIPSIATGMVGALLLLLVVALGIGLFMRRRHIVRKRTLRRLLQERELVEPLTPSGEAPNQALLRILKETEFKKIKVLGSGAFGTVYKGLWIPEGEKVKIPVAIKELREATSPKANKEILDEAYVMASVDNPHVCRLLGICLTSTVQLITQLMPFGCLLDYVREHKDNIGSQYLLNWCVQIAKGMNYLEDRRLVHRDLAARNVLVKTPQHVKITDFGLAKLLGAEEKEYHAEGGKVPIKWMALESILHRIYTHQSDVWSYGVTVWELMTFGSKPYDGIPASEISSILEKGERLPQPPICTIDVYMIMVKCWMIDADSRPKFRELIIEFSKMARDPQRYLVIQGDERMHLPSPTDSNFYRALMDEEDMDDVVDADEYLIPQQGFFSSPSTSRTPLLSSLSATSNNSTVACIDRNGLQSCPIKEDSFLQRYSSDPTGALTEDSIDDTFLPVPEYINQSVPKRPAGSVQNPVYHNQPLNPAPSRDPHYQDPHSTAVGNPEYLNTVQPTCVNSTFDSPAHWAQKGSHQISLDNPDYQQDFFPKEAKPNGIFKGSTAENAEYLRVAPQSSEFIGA

| Compound | EGFR HCT116 % Inhibition (EGFR [1]) | EGFR HCT116 RQ (relative quantification) (EGFR [1]) | IC50 [2] | IC50 (COX-1) | EGFR MCF7 % Inhibition (EGFR [3]) | EGFR MCF7 RQ (relative quantification) (EGFR [3]) | IC50 [4] | SI (selectivity index), MCF7 [4] | SI = CC50/IC50 [5] | VEGFR2 MCF7 % Inhibition (VEGFR-2 [6]) | VEGFR2 MCF7 RQ (relative quantification) (VEGFR-2 [6]) | IC50 (COX-2) | SI = IC50(COX-1)/IC50(COX-2) (COX-2) | IC50 [7] | SI (selectivity index), A431 [7] | IC50 [8] | SI (selectivity index), HCT116 [8] | VEGFR2 HCT116 % Inhibition (VEGFR-2 [9]) | VEGFR2 HCT116 RQ (relative quantification) (VEGFR-2 [9]) |
| --- | --- | --- | --- | --- | --- | --- | --- | --- | --- | --- | --- | --- | --- | --- | --- | --- | --- | --- | --- |
| CC(=O)Oc1ccccc1C(=O)N1C/C(=C\c2cccs2)C(=O)/C(=C/c2cccs2)C1 [Compound 5i, 2-[(3E,5E)-4-Oxo-3,5-bis(thiophen-2-ylmethylene)piperidine-1-carbonyl]phenyl acetate] | 61.3% | 1.564 | 19000 ± 990 nM | 455 nM | 63.6% | 1.540 | 5580 ± 520 nM | 3.41 | 125.6 | 46.3% | 2.000 | 772 nM | 0.589 | 2150 ± 150 nM | 8.8 | 9260 ± 610 nM | 2.06 | 39.8% | 2.297 |
| CC(=O)Oc1ccc(Cl)cc1C(=O)N1C/C(=C\c2cccs2)C(=O)/C(=C/c2cccs2)C1 [Compound 5p, 4-Chloro-2-[(3E,5E)-4-oxo-3,5-bis(thiophen-2-ylmethylene)piperidine-1-carbonyl]phenyl acetate] | 56.3% | 1.763 | 19900 ± 1210 nM | 285 nM | 59.0% | 1.731 | 6250 ± 610 nM | 3.18 | 233.6 | 40.7% | 2.209 | 138 nM | 2.065 | 6250 ± 490 nM | 3.2 | 6380 ± 440 nM | 3.12 | 39.6% | 2.304 |
| COc1ccc(/C=C2\CN(C(=O)c3ccccc3OC(C)=O)C/C(=C\c3ccc(OC)c(OC)c3)C2=O)cc1OC [Compound 5g, 2-[3,5-Bis((E)-3,4-dimethoxybenzylidene)-4-oxopiperidine-1-carbonyl]phenyl acetate] | 61.5% | 1.554 | 10300 ± 1100 nM | 262 nM | 61.2% | 1.638 | 4970 ± 420 nM | 2.08 | 57.5 | 37.6% | 2.324 | 2180 nM | 0.120 | 973 ± 70 nM | 10.6 | 2390 ± 210 nM | 4.32 | 37.3% | 2.393 |
| CC(=O)Oc1ccccc1C(=O)N1C/C(=C\c2ccc(C)cc2)C(=O)/C(=C/c2ccc(C)cc2)C1 [Compound 5e, 2-[3,5-Bis((E)-4-methylbenzylidene)-4-oxopiperidine-1-carbonyl]phenyl acetate] | 58.8% | 1.664 | 9890 ± 750 nM | 249 nM | 59.6% | 1.707 | 6000 ± 500 nM | 1.65 | 37.4 | 40.9% | 2.202 | 1560 nM | 0.160 | 639 ± 70 nM | 15.5 | 2560 ± 180 nM | 3.87 | 42.1% | 2.209 |
| CC(=O)Oc1ccccc1C(=O)N1C/C(=C\c2ccc(Br)cc2)C(=O)/C(=C/c2ccc(Br)cc2)C1 [Compound 5d, 2-[3,5-Bis((E)-4-bromobenzylidene)-4-oxopiperidine-1-carbonyl]phenyl acetate] | 65.9% | 1.377 | 9680 ± 570 nM | 134 nM | 64.0% | 1.52 | 4580 ± 390 nM | 2.11 | 54.7 | 48.7% | 1.91 | 1110 nM | 0.121 | 986 ± 80 nM | 9.8 | 3600 ± 290 nM | 2.69 | 60.7% | 1.5 |
| CC(=O)Oc1ccc(Cl)cc1C(=O)N1C/C(=C\c2ccc(Br)cc2)C(=O)/C(=C/c2ccc(Br)cc2)C1 [Compound 5l, 2-[3,5-Bis((E)-4-bromobenzylidene)-4-oxopiperidine-1-carbonyl]-4-chlorophenyl acetate] | 66.9% | 1.336 | 7230 ± 490 nM | 590 nM | 66.9% | 1.4 | 4150 ± 370 nM | 1.74 | 11.1 | 70.5% | 1.1 | 1010 nM | 0.582 | 667 ± 70 nM | 10.8 | 1150 ± 130 nM | 6.27 | 76.4% | 0.9 |

Source: PMC8566089 (Bioorganic Chemistry, 2021)
